The supplement of paper PMC10307832

Columns and labels:
Experiment in all cases: relative viability (nuclei count vs DMSO), 5 days (fraction); higher = more cells survive
NCI-H2170 = test system: NCI-H2170
How it was run: (§1)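 Lung cancer cell lines in 1536-well plates got either a single drug or a fixed anchor-drug dose together with five library-drug doses (not always all listed) in √10 steps, by pin tool, on the day after seeding. Nuclei were counted after 5 days, and relative viability is the treated-to-vehicle ratio of nuclei counts. Values are medians of duplicate plates.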

HARA = test system: HARA
How it was run: as §1

LK-2 = test system: LK-2
How it was run: as §1

NCI-H460 = test system: NCI-H460
How it was run: as §1

ABC-1 = test system: ABC-1
How it was run: as §1

NCI-H3122 = test system: NCI-H3122
How it was run: as §1

HCC-366 = test system: HCC-366
How it was run: as §1

NCI-H661 = test system: NCI-H661
How it was run: as §1

CAL-12T = test system: CAL-12T
How it was run: as §1

201T = test system: 201T
How it was run: as §1

NCI-H1650 = test system: NCI-H1650
How it was run: as §1

NCI-H1437 = test system: NCI-H1437
How it was run: as §1

NCI-H727 = test system: NCI-H727
How it was run: as §1

PC-14 = test system: PC-14
How it was run: as §1

BEN = test system: BEN
How it was run: as §1

LOU-NH91 = test system: LOU-NH91
How it was run: as §1

EKVX = test system: EKVX
How it was run: as §1

COR-L 105 = test system: COR-L 105
How it was run: as §1

NCI-H2009 = test system: NCI-H2009
How it was run: as §1

NCI-H1666 = test system: NCI-H1666
How it was run: as §1

`CCN(CC)CCCCNc1ncc2cc(-c3cc(OC)cc(OC)c3)c(NC(=O)NC(C)(C)C)nc2n1` + CS(=O)(=O)CCNCc1ccc(-c2ccc3ncnc(Nc4ccc(OCc5cccc(F)c5)c(Cl)c4)c3c2)o1 [Lapatinib] (partner 2 µM) showed a relative viability (NCI-H2170; first compound 0.01 µM) of 0.282, a relative viability (NCI-H2170; first compound 0.03162 µM) of 0.269 and a relative viability (NCI-H2170; first compound 0.1 µM) of 0.298. The relative viability (NCI-H2170; first compound 0.3162 µM) was 0.271, the relative viability (NCI-H2170; first compound 1 µM) was 0.276 and the relative viability (HARA; first compound 0.01 µM) was 0.833. It also gave a relative viability (HARA; first compound 0.03162 µM) of 0.469, a relative viability (HARA; first compound 0.1 µM) of 0.764 and a relative viability (HARA; first compound 0.3162 µM) of 0.581. It also gave a relative viability (HARA; first compound 1 µM) of 0.227, a relative viability (LK-2; first compound 0.01 µM) of 0.98 and a relative viability (LK-2; first compound 0.03162 µM) of 0.814. It also gave a relative viability (LK-2; first compound 0.1 µM) of 0.966, a relative viability (LK-2; first compound 0.3162 µM) of 0.645 and a relative viability (LK-2; first compound 1 µM) of 0.303. It also gave a relative viability (NCI-H460; first compound 0.01 µM) of 1.27, a relative viability (NCI-H460; first compound 0.03162 µM) of 1.18 and a relative viability (NCI-H460; first compound 0.1 µM) of 0.985. It also gave a relative viability (NCI-H460; first compound 0.3162 µM) of 1.53, a relative viability (NCI-H460; first compound 1 µM) of 0.532 and a relative viability (ABC-1; first compound 0.01 µM) of 1.33. For the same compound, the relative viability (ABC-1; first compound 0.03162 µM) was 1.11, the relative viability (ABC-1; first compound 0.1 µM) was 1.22 and the relative viability (ABC-1; first compound 0.3162 µM) was 1.34. The relative viability (ABC-1; first compound 1 µM) was 1.22, the relative viability (NCI-H3122; first compound 0.01 µM) was 0.997 and the relative viability (NCI-H3122; first compound 0.03162 µM) was 1.04. The relative viability (NCI-H3122; first compound 0.1 µM) was 1.16, the relative viability (NCI-H3122; first compound 0.3162 µM) was 1.07 and the relative viability (NCI-H3122; first compound 1 µM) was 1. For the same compound, the relative viability (HCC-366; first compound 0.01 µM) was 1.05, the relative viability (HCC-366; first compound 0.03162 µM) was 1.07 and the relative viability (HCC-366; first compound 0.1 µM) was 1.73. It also gave a relative viability (HCC-366; first compound 0.3162 µM) of 1.27, a relative viability (HCC-366; first compound 1 µM) of 1.06 and a relative viability (NCI-H661; first compound 0.01 µM) of 0.569. The relative viability (NCI-H661; first compound 0.03162 µM) was 0.457, the relative viability (NCI-H661; first compound 0.1 µM) was 0.432 and the relative viability (NCI-H661; first compound 0.3162 µM) was 0.502. For the same compound, the relative viability (NCI-H661; first compound 1 µM) was 0.493, the relative viability (CAL-12T; first compound 0.03162 µM) was 0.56 and the relative viability (CAL-12T; first compound 0.1 µM) was 0.703. For the same compound, the relative viability (CAL-12T; first compound 0.3162 µM) was 0.674, the relative viability (CAL-12T; first compound 1 µM) was 0.62 and the relative viability (201T; first compound 0.01 µM) was 1.03. The relative viability (201T; first compound 0.03162 µM) was 1.04, the relative viability (201T; first compound 0.1 µM) was 1.12 and the relative viability (201T; first compound 0.3162 µM) was 1.08. The relative viability (201T; first compound 1 µM) was 0.884, the relative viability (NCI-H1650; first compound 0.01 µM) was 0.714 and the relative viability (NCI-H1650; first compound 0.03162 µM) was 0.733. The relative viability (NCI-H1650; first compound 0.1 µM) was 0.614, the relative viability (NCI-H1650; first compound 0.3162 µM) was 0.35 and the relative viability (NCI-H1650; first compound 1 µM) was 0.242. For the same compound, the relative viability (NCI-H1437; first compound 0.01 µM) was 0.809, the relative viability (NCI-H1437; first compound 0.03162 µM) was 0.841 and the relative viability (NCI-H1437; first compound 0.1 µM) was 0.906. The relative viability (NCI-H1437; first compound 0.3162 µM) was 0.909, the relative viability (NCI-H1437; first compound 1 µM) was 0.653 and the relative viability (NCI-H727; first compound 0.01 µM) was 0.705. For the same compound, the relative viability (NCI-H727; first compound 0.03162 µM) was 0.743, the relative viability (NCI-H727; first compound 0.1 µM) was 0.944 and the relative viability (NCI-H727; first compound 0.3162 µM) was 0.967. The relative viability (NCI-H727; first compound 1 µM) was 1.08, the relative viability (PC-14; first compound 0.01 µM) was 0.318 and the relative viability (PC-14; first compound 0.03162 µM) was 0.373. It also gave a relative viability (PC-14; first compound 0.1 µM) of 0.391, a relative viability (PC-14; first compound 0.3162 µM) of 0.362 and a relative viability (PC-14; first compound 1 µM) of 0.237. The relative viability (BEN; first compound 0.01 µM) was 0.76, the relative viability (BEN; first compound 0.03162 µM) was 0.539 and the relative viability (BEN; first compound 0.1 µM) was 0.767. For the same compound, the relative viability (BEN; first compound 0.3162 µM) was 0.835, the relative viability (BEN; first compound 1 µM) was 0.651 and the relative viability (LOU-NH91; first compound 0.01 µM) was 0.664. It also gave a relative viability (LOU-NH91; first compound 0.03162 µM) of 0.746, a relative viability (LOU-NH91; first compound 0.1 µM) of 0.824 and a relative viability (LOU-NH91; first compound 0.3162 µM) of 0.885. The relative viability (LOU-NH91; first compound 1 µM) was 0.737, the relative viability (EKVX; first compound 0.01 µM) was 0.187 and the relative viability (EKVX; first compound 0.03162 µM) was 0.181. The relative viability (EKVX; first compound 0.1 µM) was 0.178, the relative viability (EKVX; first compound 0.3162 µM) was 0.207 and the relative viability (EKVX; first compound 1 µM) was 0.207. The relative viability (COR-L 105; first compound 0.01 µM) was 0.386, the relative viability (COR-L 105; first compound 0.03162 µM) was 0.361 and the relative viability (COR-L 105; first compound 0.1 µM) was 0.399. The relative viability (COR-L 105; first compound 0.3162 µM) was 0.422, the relative viability (COR-L 105; first compound 1 µM) was 0.387 and the relative viability (NCI-H2009; first compound 0.01 µM) was 0.898. It also gave a relative viability (NCI-H2009; first compound 0.03162 µM) of 0.971, a relative viability (NCI-H2009; first compound 0.1 µM) of 0.956 and a relative viability (NCI-H2009; first compound 0.3162 µM) of 0.932. For the same compound, the relative viability (NCI-H2009; first compound 1 µM) was 1.43, the relative viability (NCI-H1666; first compound 0.01 µM) was 0.819 and the relative viability (NCI-H1666; first compound 0.03162 µM) was 0.62. It also gave a relative viability (NCI-H1666; first compound 0.1 µM) of 0.604, a relative viability (NCI-H1666; first compound 0.3162 µM) of 0.684 and a relative viability (NCI-H1666; first compound 1 µM) of 0.498.
